Data reported in patent US6649623B1, “Cyclic amine derivatives and use thereof” (Shionogi & Co., Ltd., priority 1999, dated 2003).
Read-outs that look alike come from different tables or passages of the source.

What was measured:
KK-Ay mouse [1] = experiment: 7-day subcutaneous administration to KK-Ay mouse: body weight, food intake, blood glucose and insulin; type: in vivo; details: 80 mg/kg s.c. for 7 days; for response vs control in vivo at 80 mg/kg: sc, 192 h, male KK-Ay mouse, average; for food intake (in words): KK-Ay mouse
Protocol: After 80 mg/kg of the present compound was administered subcutaneously for 7 days to 7-8 week aged male KK-Ay mouse (n=5˜7, CLEA JAPAN, INC), the amount of food intake from seventh day to eighth day, and body weight of eighth day were measured. For a control group, physiological saline was used. After the body weight was measured, the blood was collected from abdominal aorta by a syringe containing 50 U heparin and centrifuged 12,000×g for five min. Glucose in blood was measured by New Blood.Sugar.Test (Boehringer Ingelheim) and insulin was measured by Insulin-EIA Test (GLAOZYME). Each value is an average value and represented by percent to each value of eighth days in the control group. As to the compounds of and after Example 13, each corresponding hydrochloride was used.

KK-Ay mouse [2] = experiment: Plasma leptin concentration in KK-Ay mouse (mouse leptin RIA kit); type: in vivo; details: 40 mg/kg s.c., after 24 hours, saline group 26.7±1.9 ng/ml
Protocol: The compound 3cs of Example 3 (40 mg/kg ) was administered subcutaneously to KK-Ay mouse. After 24 hours, the concentration of leptin in plasma was measured by using mouse leptin RIA measuring kit (Linco). The blood was collected from abdominal aorta by a syringe containing 50 U heparin and centrifuged 12,000×g for 5 min to give plasma.

[3] = body weight of eighth day, percent to value of control group (physiological saline), read-out: Body weight
[4] = food intake from seventh to eighth day, percent to value of control group, read-out: Food intake
[5] = glucose in blood on eighth day, percent to value of control group, read-out: Glucose
[6] = insulin in blood on eighth day, percent to value of control group, read-out: Insulin

Fc1ccc(OCCCN2CC=CCC2)cc1F [Example 32]
response vs control in vivo at 80 mg/kg (KK-Ay mouse [1]; [3]): 92%
response vs control in vivo at 80 mg/kg (KK-Ay mouse [1]; [4]): 85%
response vs control in vivo at 80 mg/kg (KK-Ay mouse [1]; [5]): 73%
response vs control in vivo at 80 mg/kg (KK-Ay mouse [1]; [6]): 69%

Clc1ccc(OCCCN2CC=CCC2)cc1Cl [Example 3, 1-[3-(3,4-Dichloro-phenoxy)-propyl]-1,2,3,6-tetrahydro-pyridine]
food intake (in words) (KK-Ay mouse [1]): little repressed
response vs control in vivo at 80 mg/kg (KK-Ay mouse [1]; [3]): 84%
response vs control in vivo at 80 mg/kg (KK-Ay mouse [1]; [4]): 82%
response vs control in vivo at 80 mg/kg (KK-Ay mouse [1]; [5]): 73%
response vs control in vivo at 80 mg/kg (KK-Ay mouse [1]; [6]): 49%
concentration of leptin in plasma (KK-Ay mouse [2]): 44.8 ± 5.2 ng/mL

Clc1cc(Cl)cc(OCCCN2CC=CCC2)c1 [Example 21]
response vs control in vivo at 80 mg/kg (KK-Ay mouse [1]; [3]): 89%
response vs control in vivo at 80 mg/kg (KK-Ay mouse [1]; [4]): 74%
response vs control in vivo at 80 mg/kg (KK-Ay mouse [1]; [5]): 80%
response vs control in vivo at 80 mg/kg (KK-Ay mouse [1]; [6]): 53%

FC(F)(F)c1ccc(COc2ccc(OCCCN3CC=CCC3)cc2Cl)cc1 [Example 33]
response vs control in vivo at 80 mg/kg (KK-Ay mouse [1]; [3]): 93%
response vs control in vivo at 80 mg/kg (KK-Ay mouse [1]; [4]): 72%
response vs control in vivo at 80 mg/kg (KK-Ay mouse [1]; [5]): 54%
response vs control in vivo at 80 mg/kg (KK-Ay mouse [1]; [6]): 44%

FC(F)(F)c1cccc(OCCCN2CC=CCC2)c1 [Example 39]
response vs control in vivo at 80 mg/kg (KK-Ay mouse [1]; [3]): 95%
response vs control in vivo at 80 mg/kg (KK-Ay mouse [1]; [4]): 78%
response vs control in vivo at 80 mg/kg (KK-Ay mouse [1]; [5]): 70%
response vs control in vivo at 80 mg/kg (KK-Ay mouse [1]; [6]): 52%

Clc1ccc(NCCCN2CC=CCC2)cc1Cl [Example 11, (3,4-Dichlorophenyl)-[3-(3,6-dihydro-2-H-pyridin-1-yl)propyl]-amine]
response vs control in vivo at 80 mg/kg (KK-Ay mouse [1]; [3]): 94%
response vs control in vivo at 80 mg/kg (KK-Ay mouse [1]; [4]): 92%
response vs control in vivo at 80 mg/kg (KK-Ay mouse [1]; [5]): 93%
response vs control in vivo at 80 mg/kg (KK-Ay mouse [1]; [6]): 74%

Brc1ccc(-c2ccc(OCCCN3CC=CCC3)cc2)cc1 [Example 30]
response vs control in vivo at 80 mg/kg (KK-Ay mouse [1]; [3]): 95%
response vs control in vivo at 80 mg/kg (KK-Ay mouse [1]; [4]): 73%
response vs control in vivo at 80 mg/kg (KK-Ay mouse [1]; [5]): 62%
response vs control in vivo at 80 mg/kg (KK-Ay mouse [1]; [6]): 50%

Clc1ccc(OCCCCN2CC=CCC2)cc1Cl [Example 10, 1-[4-(3,4-Dichloro-phenoxy)-butyl]-1,2,3,6-tetrahydro-pyridine]
response vs control in vivo at 80 mg/kg (KK-Ay mouse [1]; [3]): 94%
response vs control in vivo at 80 mg/kg (KK-Ay mouse [1]; [4]): 82%
response vs control in vivo at 80 mg/kg (KK-Ay mouse [1]; [5]): 87%
response vs control in vivo at 80 mg/kg (KK-Ay mouse [1]; [6]): 31%

Clc1ccc(OCCCN2CC=CCC2)c(Cl)c1Cl [Example 7, 1-[3-(2,3,4-Trichloro-phenoxy)-propyl]-1,2,3,6-tetrahydro-pyridine]
response vs control in vivo at 80 mg/kg (KK-Ay mouse [1]; [3]): 83%
response vs control in vivo at 80 mg/kg (KK-Ay mouse [1]; [4]): 78%
response vs control in vivo at 80 mg/kg (KK-Ay mouse [1]; [5]): 72%
response vs control in vivo at 80 mg/kg (KK-Ay mouse [1]; [6]): 51%

Cc1cc(OCCCN2CC=CCC2)ccc1F [Example 23]
response vs control in vivo at 80 mg/kg (KK-Ay mouse [1]; [3]): 89%
response vs control in vivo at 80 mg/kg (KK-Ay mouse [1]; [4]): 76%
response vs control in vivo at 80 mg/kg (KK-Ay mouse [1]; [5]): 67%
response vs control in vivo at 80 mg/kg (KK-Ay mouse [1]; [6]): 91%

Clc1ccc(OCCN2CC=CCC2)cc1Cl [Example 9, 1-[2-(3,4-Dichloro-phenoxy)-ethyl]-1,2,3,6-tetrahydro-pyridine]
response vs control in vivo at 80 mg/kg (KK-Ay mouse [1]; [3]): 87%
response vs control in vivo at 80 mg/kg (KK-Ay mouse [1]; [4]): 83%
response vs control in vivo at 80 mg/kg (KK-Ay mouse [1]; [5]): 71%
response vs control in vivo at 80 mg/kg (KK-Ay mouse [1]; [6]): 53%

Clc1ccc(OCCCN2CC=CCC2)c(Cl)c1 [Example 6, 1-[3-(2,4-Dichloro-phenoxy)-propyl]-1,2,3,6-tetrahydro-pyridine]
food intake (in words) (KK-Ay mouse [1]): little repressed
response vs control in vivo at 80 mg/kg (KK-Ay mouse [1]; [3]): 85%
response vs control in vivo at 80 mg/kg (KK-Ay mouse [1]; [4]): 84%
response vs control in vivo at 80 mg/kg (KK-Ay mouse [1]; [5]): 76%
response vs control in vivo at 80 mg/kg (KK-Ay mouse [1]; [6]): 32%

FC(F)(F)c1cc(OCCCN2CC=CCC2)cc(C(F)(F)F)c1 [Example 41]
response vs control in vivo at 80 mg/kg (KK-Ay mouse [1]; [3]): 88%
response vs control in vivo at 80 mg/kg (KK-Ay mouse [1]; [4]): 77%
response vs control in vivo at 80 mg/kg (KK-Ay mouse [1]; [5]): 56%
response vs control in vivo at 80 mg/kg (KK-Ay mouse [1]; [6]): 48%

Brc1ccc(OCCCN2CC=CCC2)c(Br)c1 [Example 2, 1-[3-(2,4-Dibromo-phenoxy)-propyl]-1,2,3,6-tetrahydro-pyridine]
food intake (in words) (KK-Ay mouse [1]): little repressed
response vs control in vivo at 80 mg/kg (KK-Ay mouse [1]; [3]): 93%
response vs control in vivo at 80 mg/kg (KK-Ay mouse [1]; [4]): 100%
response vs control in vivo at 80 mg/kg (KK-Ay mouse [1]; [5]): 79%
response vs control in vivo at 80 mg/kg (KK-Ay mouse [1]; [6]): 41%

Cc1ccc(F)c(OCCCN2CC=CCC2)c1 [Example 45]
response vs control in vivo at 80 mg/kg (KK-Ay mouse [1]; [3]): 94%
response vs control in vivo at 80 mg/kg (KK-Ay mouse [1]; [4]): 82%
response vs control in vivo at 80 mg/kg (KK-Ay mouse [1]; [5]): 79%
response vs control in vivo at 80 mg/kg (KK-Ay mouse [1]; [6]): 70%

C1=CCN(CCCOc2ccc3sccc3c2)CC1 [Example 17]
response vs control in vivo at 80 mg/kg (KK-Ay mouse [1]; [3]): 94%
response vs control in vivo at 80 mg/kg (KK-Ay mouse [1]; [4]): 84%
response vs control in vivo at 80 mg/kg (KK-Ay mouse [1]; [5]): 99%
response vs control in vivo at 80 mg/kg (KK-Ay mouse [1]; [6]): 84%

Clc1cccc(OCCCN2CC=CCC2)c1 [Example 4, 1-[3-(3-Chlorophenoxy)-propyl]-1,2,3,6-tetrahydro-pyridine]
response vs control in vivo at 80 mg/kg (KK-Ay mouse [1]; [3]): 87%
response vs control in vivo at 80 mg/kg (KK-Ay mouse [1]; [4]): 79%
response vs control in vivo at 80 mg/kg (KK-Ay mouse [1]; [5]): 84%
response vs control in vivo at 80 mg/kg (KK-Ay mouse [1]; [6]): 47%

Clc1ccc(COCCCN2CC=CCC2)cc1Cl [Example 8, 1-[3-(3,4-Dichloro-benzyloxy)-propyl]-1,2,3,6-tetrahydro-pyridine]
response vs control in vivo at 80 mg/kg (KK-Ay mouse [1]; [3]): 94%
response vs control in vivo at 80 mg/kg (KK-Ay mouse [1]; [4]): 96%
response vs control in vivo at 80 mg/kg (KK-Ay mouse [1]; [5]): 78%
response vs control in vivo at 80 mg/kg (KK-Ay mouse [1]; [6]): 31%

FC(F)(F)c1ccc(Oc2ccc(OCCCN3CC=CCC3)cc2)cc1 [Example 44]
response vs control in vivo at 80 mg/kg (KK-Ay mouse [1]; [3]): 82%
response vs control in vivo at 80 mg/kg (KK-Ay mouse [1]; [4]): 59%
response vs control in vivo at 80 mg/kg (KK-Ay mouse [1]; [5]): 54%
response vs control in vivo at 80 mg/kg (KK-Ay mouse [1]; [6]): 21%

Cc1ccc(OCCCN2CC=CCC2)cc1C [Example 27]
response vs control in vivo at 80 mg/kg (KK-Ay mouse [1]; [3]): 93%
response vs control in vivo at 80 mg/kg (KK-Ay mouse [1]; [4]): 77%
response vs control in vivo at 80 mg/kg (KK-Ay mouse [1]; [5]): 87%
response vs control in vivo at 80 mg/kg (KK-Ay mouse [1]; [6]): 42%

Cc1ccc(OCCCN2CC=CCC2)c(Cl)c1 [Example 25]
response vs control in vivo at 80 mg/kg (KK-Ay mouse [1]; [3]): 90%
response vs control in vivo at 80 mg/kg (KK-Ay mouse [1]; [4]): 73%
response vs control in vivo at 80 mg/kg (KK-Ay mouse [1]; [5]): 58%
response vs control in vivo at 80 mg/kg (KK-Ay mouse [1]; [6]): 63%

COc1cccc(OCCCN2CC=CCC2)c1 [Example 5, 1-[3-(3-Methoxy-phenoxy)-propyl]-1,2,3,6-tetrahydro-pyridine]
response vs control in vivo at 80 mg/kg (KK-Ay mouse [1]; [3]): 94%
response vs control in vivo at 80 mg/kg (KK-Ay mouse [1]; [4]): 88%
response vs control in vivo at 80 mg/kg (KK-Ay mouse [1]; [5]): 62%
response vs control in vivo at 80 mg/kg (KK-Ay mouse [1]; [6]): 38%

Fc1cccc(F)c1OCCCN1CC=CCC1 [Example 36]
response vs control in vivo at 80 mg/kg (KK-Ay mouse [1]; [3]): 86%
response vs control in vivo at 80 mg/kg (KK-Ay mouse [1]; [4]): 75%
response vs control in vivo at 80 mg/kg (KK-Ay mouse [1]; [5]): 61%
response vs control in vivo at 80 mg/kg (KK-Ay mouse [1]; [6]): 54%

CC(C)(C)c1cccc(OCCCN2CC=CCC2)c1 [Example 49]
response vs control in vivo at 80 mg/kg (KK-Ay mouse [1]; [3]): 91%
response vs control in vivo at 80 mg/kg (KK-Ay mouse [1]; [4]): 80%
response vs control in vivo at 80 mg/kg (KK-Ay mouse [1]; [5]): 56%
response vs control in vivo at 80 mg/kg (KK-Ay mouse [1]; [6]): 73%

Fc1ccc(OCCCN2CC=CCC2)c(F)c1 [Example 1, 1-[3-(2,4-Difluoro-phenoxy)-propyl]-1,2,3,6-tetrahydro-pyridine]
response vs control in vivo at 80 mg/kg (KK-Ay mouse [1]; [3]): 85%
response vs control in vivo at 80 mg/kg (KK-Ay mouse [1]; [4]): 76%
response vs control in vivo at 80 mg/kg (KK-Ay mouse [1]; [5]): 56%
response vs control in vivo at 80 mg/kg (KK-Ay mouse [1]; [6]): 12%

Fc1cc(F)c(OCCCN2CC=CCC2)c(F)c1 [Example 46]
response vs control in vivo at 80 mg/kg (KK-Ay mouse [1]; [3]): 90%
response vs control in vivo at 80 mg/kg (KK-Ay mouse [1]; [4]): 91%
response vs control in vivo at 80 mg/kg (KK-Ay mouse [1]; [5]): 58%
response vs control in vivo at 80 mg/kg (KK-Ay mouse [1]; [6]): 53%
